Reference: article PMC5947527 (Chemical Science, 2015)
“Also recorded” adds a separate entry of the source. Non-standard residues stand in square brackets, D forms with d. Residues, ends and D or L forms follow the SMILES beside them. *: point of attachment. NBD = O=[N+]([O-])c1ccc(*)c2nonc12; Nle = CCCC[C@H](N)C(=O)O; Ahx = NCCCCCC(=O)O

Legend:
[1] = tested on: methicillin-sensitive Staphylococcus aureus (MSSA), Pseudomonas aeruginosa and Klebsiella pneumoniae; experiment: Confocal bacterial labelling, UBI-2 vs UBI-3 on a panel of bacteria; assay type: cell-based; settings: fluorescence normalised to UBI-2, mean ± SEM, n ≥ 3
Procedure: Fig. 3 UBI-3 retains specificity and sensitivity for bacterial labelling. […] Panels show bacteria labelled with either UBI-2 or UBI-3 with quantification of fluorescence (values normalised to UBI-2) (Bars represent mean, error bars represent standard error of mean, n ≥ 3, ns = not significant, scale bar = 10 μm). (B) Quantification from confocal images of UBI-3 (10 μM) imaging a panel of bacteria (statistical analyses shown compared to unlabelled bacteria, n ≥ 3 for each bacteria, *** = p < 0.001). […] [MRSA: methicillin-resistant Staphylococcus aureus, MSSA: methicillin-sensitive Staphylococcus aureus]. […]
(§1) Confocal Analysis and Fluorescence Quantification: 8-Well Lab-Tek II Confocal Chambers (VWR, PA, USA) were coated in fibronectin (for neutrophil experiments) or poly-d-lysine (for bacteria) at 37 °C for 20 minutes, then washed in PBS prior to bacterial innoculation. […] Exposure to 488 nm light was limited to 5% of the maximum laser power in order to minimize toxicity. ‘Green’ fluorescence (for FAM and NBD) was excited with a dedicated 488 nm line and emitted light detected with meta detector (500-530 nM).
(§2) Syto nuclear and dyes were excited with a dedicated 543 nm line, and emitted light detected with meta detector (570-610 nM). Fields of view were chosen based on the counterstain and at least three fields of view were recorded for each condition. […]

[2] = Chemical stability on storage in phosphate buffered saline at 37 °C (HPLC); assay type: physicochemical; settings: 1 mg mL–1 in PBS, day 0 vs day 3, HPLC, detection at 380 nm
Procedure: This modification is particularly of relevance due to the expected in vivo inflammatory oxidative environment within an infected pneumonic lung due to infiltrating host inflammatory cells such as neutrophils,[13] and therefore all subsequent modifications incorporated Nle in place of Met.
HPLC chromatograms (gradient acetonitrile + 0.1% formic acid/water + 0.1% formic acid from 5/95 to 95/5 over 10 min, then isocratic for 4 min; detection at 380 nm). UBI-2 (1 mg mL^–1 in PBS, upper panels) and UBI-3 (1 mg mL^–1 in PBS, lower panels) at (A) day 0 and (B) day 3 after incubation at 37 °C.

P. aeruginosa = experiment: Confocal labelling of bacteria in the presence of human ARDS BALF; assay type: cell-based; settings: 10 μM, n = 3 PBS, n = 5 ARDS, p < 0.001
Description: To determine the ability of UBI-3 to image bacteria in the continued presence of a complex inflammatory environment, bacteria were labelled with UBI-3 in the presence of broncho-alveolar lavage fluid (BALF) retrieved from ventilated ICU patients with Acute Respiratory Distress Syndrome (ARDS). ARDS BALF was utilised as ARDS is a severe life threatening pulmonary syndrome, characterized by a massive proteolytic and oxidative inflammatory environment within the distal alveolar region.[14] […] To design out susceptible amino acid cleavage points, a number of modifications were made (Table 1) and the functional consequences assessed. […]
as §1, §2

## CCCC[C@H](NC(=O)[C@H](CCCNC(=N)N)NC(=O)[C@H](CCCNC(=N)N)NC(=O)[C@H](CCCCN)NC(=O)[C@H](C)NC(=O)[C@H](CCCNC(=N)N)NC(=O)CNC(=O)[C@@H](NC(=O)CCCCCNc1ccc([N+](=O)[O-])c2nonc12)[C@@H](C)O)C(=O)N[C@@H](CCC(N)=O)C(=O)N[C@@H](Cc1ccc(O)cc1)C(=O)N[C@@H](CC(N)=O)C(=O)N[C@@H](CCCNC(=N)N)C(=O)N[C@@H](CCCNC(=N)N)C(N)=O [UBI-3] ({NBD-Ahx}-TGRAKRR[Nle]QYNRR-NH2)
[1]
  bacterial labelling, Met vs Nle variant: retained bacterial labelling; also recorded: same fluorescence intensity
[2]
  chemical stability in PBS at 37 °C: prevented by substitution of the Met to Nle
P. aeruginosa
  fluorescent labelling intensity of bacteria in ARDS BALF compared to PBS: significant reduction in the fluorescent labelling intensity; also recorded: significantly reduced intensity when compared to PBS
